Here are results for six compounds from article PMC6491784, “Para-Halogenation Affects Monoamine Transporter Inhibition Properties and Hepatocellular Toxicity of Amphetamines and Methcathinones” (Frontiers in Pharmacology, 2019).

Bounds are passed on as bounds.

The target of one data set is T1, human NET (Homo sapiens, UniProt P23975).
T1 construct: expressed in transfected cells; host or cells: HEK 293 (stably transfected)
The data set can be described thus: Norepinephrine uptake inhibition in hNET-transfected HEK 293 cells. The class given is cell-based.

Data set [1] deals with HepG2 cells. Description: Cellular oxygen consumption rate (Seahorse XF24). It counts as cell-based, human. As to conditions: HepG2, 24 h exposure; for Concentration decreasing maximal respiratory capacity: OCR after FCCP; for Concentration disrupting cellular respiration: investigated range ≤2 mM. On the procedure:
The cellular oxygen consumption rate (OCR) was measured with a Seahorse XF24 Analyzer (Seahorse Biosciences, North Billerica, MA, USA). Briefly, HepG2 cells were seeded in a poly-D-lysine coated Seahorse XF24 cell culture microplate at a density of 100,000 cells per well. The following day, the cells were treated with the compounds of interest dissolved in 100 μl culture medium. After 24 h incubation, the medium was removed, and the cells were washed twice with pre-warmed and unbuffered DMEM (4 mM L-glutamate, 1 mM pyruvate, 1 g/L glucose, 63.3 mM sodium chloride, pH 7.4). Thereafter, 750 μl of unbuffered DMEM was added to each well, and the plate was incubated in a CO2 free incubator for 40 min at 37°C. The ports of the XF24 assay cartridge were then loaded with oligomycin, trifluoromethoxy carbonylcyanide phenylhydrazone (FCCP), or rotenone at a final assay concentration of 1 μM, and the cartridge was loaded into the Seahorse XF24 Analyzer. First, oligomycin was injected to inhibit mitochondrial phosphorylation, allowing a quantification of proton leak. Second, oxidative phosphorylation was uncoupled from ATP synthesis by FCCP to determine the maximal respiratory capacity of the cells. Third, rotenone was injected to inhibit complex I of the electron transport chain in order to assess for extramitochondrial respiration, which was then subtracted from basal, leak, and maximal respiration. The protein content was determined using sulforhodamine B staining. The cells were fixed with 100 μl trichloroacetic acid (50% [w/v]), added to each well of the assay plate. After 1 h at 4°C, the cells were washed with deionized water and stained with sulforhodamine B (0.4% [w/v], in 1% [v/v] acetic acid). After 20 min, the cells were rapidly washed with 1% (v/v) acetic acid, and the incorporated dye was solubilized with 100 μl of 10 mM TRIS base. The absorbance was then measured at 490 nm.
(§1) All statistical analyses were performed using GraphPad Prism 7.0c (GraphPad Software, La Jolla, CA, USA). For toxicology assays, differences between control and test drugs were calculated with ANOVA followed by Dunett’s test. p below 0.05 was considered statistically significant. Monoamine uptake data were fit by nonlinear regression to variable slope sigmoidal dose-response curves to assess IC50 values.

The next data set concerns the target T2, human SERT (Homo sapiens, UniProt P31645).
T2 construct: expressed in transfected cells; host or cells: HEK 293 (stably transfected)
Description: Serotonin uptake inhibition in hSERT-transfected HEK 293 cells. It counts as cell-based.

The subject of data set [2] is HepG2 cells. The data set can be described thus: Mechanisms of cell death (annexin V / propidium iodide flow cytometry). It counts as cell-based, human. As to conditions: HepG2, 24 h exposure; for Main mechanism of cell death: 4-chloroamphetamine at 0.5 mM; for Concentration causing significant reduction in cell viability (annexin V staining): highest concentration 2 mM.
Text: Annexin V, a Ca^2+-dependent phospholipid-binding protein that has a high affinity for phosphatidylserine, was used to determine the percentage of apoptotic cells. Phosphatidylserine is located in the inner cytoplasmic surface of intact cell membranes; in apoptotic cells, phosphatidylserine is translocated to the outer leaflet of the plasma membrane where annexin V binds to it. To assess the percentage of dead cells composed of necrotic and late apoptotic cells, propidium iodide, a red fluorescent dye not permeable to live and apoptotic cells but able to stain permeable necrotic cells by binding to the nucleic acid in the cell, was used. Briefly, 100,000 HepG2 cells per well were seeded in a 48-well plate and cultured overnight. The following day, the cells were treated with 250 μl of the compounds of interest dissolved in medium at concentrations selected based on ATP depletion and cell membrane disruption. Doxorubicin (0.5 μM) was included as positive control. After incubation for 24 h, the cells were harvested with 0.05% trypsin and washed with phosphate buffered saline (pH = 7.4). […] After 15 min incubation in the dark, the cells were analyzed with a CytoFLEX flow cytometer (Beckman Coulter, IN, USA) gating for 10,000 cells.
as §1

The test system of data set [3] is HepG2 cells. Description: ATP content (CellTiter-Glo). It counts as cell-based, human. The conditions noted are these: HepG2, 24 h exposure. The procedure:
The ATP content was assessed with the CellTiter-Glo Luminescent Cell Viability Assay (Promega, Dübendorf, Switzerland). Briefly, HepG2 cells were seeded in a 96-well plate at a density of 25,000 cells per well. The following day, the cells were treated with 100 μl of the test substances dissolved in medium (0.25, 0.5, 1.0, and 2.0 mM of each drug, and additionally, 0.1 mM of 4-fluoroamphetamine and 4-chloroamphetamine). Triton X-100 (0.5%) was chosen as positive control to induce cell lysis. After 24 h incubation, 50 μl of the supernatant was discarded, and 50 μl of CellTiter-Glo reagent was added to each well. The plate was then shaken for 15 min at room temperature to induce cell lysis. Thereafter, luminescence was measured with a M200 Pro Infinity plate reader (Tecan, Männedorf, Switzerland) and compared to medium control.
as §1
A general note: Cellular ATP, detected with luciferase, serves as a proxy for viable cell number.

A further data set concerns the target T3, human DAT (Homo sapiens, UniProt Q01959).
T3 construct: expressed in transfected cells; host or cells: HEK 293 (stably transfected)
Description: Dopamine uptake inhibition in hDAT-transfected HEK 293 cells. It counts as cell-based.

Data set [4] relates to HepG2 cells. Description: Cell membrane integrity (ToxiLight BioAssay). It counts as cell-based, human. As to conditions: HepG2, 24 h exposure; tested up to 2 mM. The procedure: Cell membrane integrity loss was assessed with the ToxiLight BioAssay Kit (Lonza, Basel, Switzerland) as a marker of cytotoxicity. Briefly, HepG2 cells were seeded in a 96-well plate at a density of 25,000 cells per well. The following day, the cells were treated with 100 μl of the compounds of interest dissolved in medium (0.25, 0.5, 1.0, and 2.0 mM of each drug, and additionally, 0.1 mM of 4-fluoroamphetamine and 4-chloroamphetamine). Triton X-100 (0.5%) was chosen as positive control to induce cell lysis. After 24 h, 50 μl of the ToxiLight assay buffer was added to 20 μl of the supernatant of the drug treatments. After 5 min incubation under shaking, luminescence was measured with a M200 Pro Infinity plate reader (Tecan, Männedorf, Switzerland) and compared to medium control. The amount of viable cells (no cell membrane integrity loss) was calculated in relation to untreated cells and cells lysed with Triton X-100, which were determined to represent 100% and 0% viable cells, respectively.
as §1

Data set [5] has as its system HepG2 cells. The data set can be described thus: Mitochondrial superoxide production (MitoSOX). It counts as cell-based, human. As to conditions: HepG2, 24 h exposure. The procedure: Briefly, HepG2 cells were seeded in a 96-well plate at a density of 25,000 cells per well. The following day, the cells were treated with 100 μl of the test substances dissolved in medium (0.25, 0.5, 1.0, and 2.0 mM of each drug, and additionally, 0.1 mM of 4-fluoroamphetamine and 4-chloroamphetamine). Amiodarone (50 μM) was included as positive control. After 24 h incubation, 100 μl of MitoSOX reagent (2.5 μM) was added to each well for 10 min at 37°C protected from light. After that, fluorescence was measured at 510/580 nm with a M200 Pro Infinity plate reader (Tecan, Männedorf, Switzerland). The protein content was assessed with the Pierce BCA Protein Assay Kit (Thermo Fisher Scientific, Basel, Switzerland).
as §1

What is called IC50 is the concentration that gives 50% inhibition.

T3 sequence (Q01959 whole entry): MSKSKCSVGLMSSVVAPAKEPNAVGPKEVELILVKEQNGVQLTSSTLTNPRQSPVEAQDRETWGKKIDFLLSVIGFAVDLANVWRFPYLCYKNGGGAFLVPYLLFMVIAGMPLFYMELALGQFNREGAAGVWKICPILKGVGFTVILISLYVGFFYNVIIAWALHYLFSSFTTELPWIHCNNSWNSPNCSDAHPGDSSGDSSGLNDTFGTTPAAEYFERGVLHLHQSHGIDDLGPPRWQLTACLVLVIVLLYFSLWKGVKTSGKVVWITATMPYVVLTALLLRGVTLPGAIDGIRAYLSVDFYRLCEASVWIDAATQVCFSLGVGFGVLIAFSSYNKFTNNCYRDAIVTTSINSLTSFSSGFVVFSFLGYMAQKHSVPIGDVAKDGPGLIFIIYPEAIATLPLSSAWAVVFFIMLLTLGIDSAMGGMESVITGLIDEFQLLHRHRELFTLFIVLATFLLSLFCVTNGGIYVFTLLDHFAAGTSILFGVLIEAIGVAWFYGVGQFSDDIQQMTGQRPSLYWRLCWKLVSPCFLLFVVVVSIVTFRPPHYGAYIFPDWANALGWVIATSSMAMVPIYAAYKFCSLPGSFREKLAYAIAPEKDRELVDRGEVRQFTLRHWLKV
T1 sequence (P23975 whole entry): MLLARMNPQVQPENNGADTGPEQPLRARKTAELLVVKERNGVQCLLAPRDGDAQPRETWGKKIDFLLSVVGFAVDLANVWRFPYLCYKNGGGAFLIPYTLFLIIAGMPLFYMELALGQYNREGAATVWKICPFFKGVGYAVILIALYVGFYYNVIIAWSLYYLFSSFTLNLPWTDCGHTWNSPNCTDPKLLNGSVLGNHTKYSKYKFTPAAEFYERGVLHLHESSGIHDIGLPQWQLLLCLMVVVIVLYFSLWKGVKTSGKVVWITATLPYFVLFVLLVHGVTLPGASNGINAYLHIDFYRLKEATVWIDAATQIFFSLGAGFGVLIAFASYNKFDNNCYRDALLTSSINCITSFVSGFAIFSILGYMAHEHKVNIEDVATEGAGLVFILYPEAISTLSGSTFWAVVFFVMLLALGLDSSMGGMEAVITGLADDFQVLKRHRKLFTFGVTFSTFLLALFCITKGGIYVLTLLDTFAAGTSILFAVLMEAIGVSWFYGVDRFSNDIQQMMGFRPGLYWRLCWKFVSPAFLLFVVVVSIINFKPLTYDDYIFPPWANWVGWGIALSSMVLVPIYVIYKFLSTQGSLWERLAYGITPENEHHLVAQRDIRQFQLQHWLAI
T2 sequence (P31645 whole entry): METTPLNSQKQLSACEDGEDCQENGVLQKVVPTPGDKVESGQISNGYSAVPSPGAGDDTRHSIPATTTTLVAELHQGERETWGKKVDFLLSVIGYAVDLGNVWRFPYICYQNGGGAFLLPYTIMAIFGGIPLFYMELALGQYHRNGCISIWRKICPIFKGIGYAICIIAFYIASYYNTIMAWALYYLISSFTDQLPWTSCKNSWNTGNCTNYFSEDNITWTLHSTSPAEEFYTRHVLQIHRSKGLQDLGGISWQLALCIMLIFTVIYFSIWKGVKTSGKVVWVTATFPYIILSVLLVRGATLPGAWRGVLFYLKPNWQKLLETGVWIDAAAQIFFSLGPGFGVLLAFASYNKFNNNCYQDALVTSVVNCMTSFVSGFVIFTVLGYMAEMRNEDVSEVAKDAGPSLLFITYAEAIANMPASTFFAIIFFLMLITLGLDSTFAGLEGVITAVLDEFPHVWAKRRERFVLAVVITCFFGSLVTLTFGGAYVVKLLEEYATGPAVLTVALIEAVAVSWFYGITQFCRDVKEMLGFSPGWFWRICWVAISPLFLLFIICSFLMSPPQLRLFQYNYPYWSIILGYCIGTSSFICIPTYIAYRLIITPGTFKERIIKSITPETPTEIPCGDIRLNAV

As to `CC(N)Cc1ccc(Cl)cc1` (centres unmarked) [4-Chloroamphetamine], the midpoint of inhibition at human NET, the IC50, lay at 320 nM. Further, the “Concentration decreasing maximal respiratory capacity” value with HepG2 cells [1] was determined as 100 µM. Further, half-maximal inhibition against human SERT (IC50) required 490 nM. Also, in the data set with HepG2 cells [2], the “Main mechanism of cell death” value is reported as “necrosis” and the “Concentration causing significant reduction in cell viability (annexin V staining)” value was found to be 500 µM. The “Concentration at which significant depletion of ATP was observed” value in the data set on HepG2 cells [3] worked out at 100 µM. Besides, the “ATP content at 0.5 mM” value with HepG2 cells [3] (0.5 mM) was “almost complete ATP depletion”. Further, on human DAT, the DAT/SERT ratio is given as 0.14 (0.07–0.25) and the IC50 amounted to 3600 nM. For the same compound, in the data set with HepG2 cells [4], the “Concentration causing significant cell membrane integrity loss” value stood at 500 µM. Further, in the data set with HepG2 cells [5], the “Concentration at which significant increase in mitochondrial superoxide was observed” value turned out to be 500 µM.
Compound `CNC(C)C(=O)c1ccc(Cl)cc1` (centres unmarked) [4-Chloromethcathinone, 4-chloromethcathinone] yielded an IC50 against human NET of 430 nM. Moreover, the “Concentration showing signs of uncoupling of cellular respiration from ATP synthesis” value in the data set with HepG2 cells [1] (OCR) came to 1000 µM. Moreover, the “Concentration decreasing maximal respiratory capacity” value in the data set with HepG2 cells [1] amounted to 1000 µM. In addition, half-maximal inhibition against human SERT (IC50) was put at 2300 nM. Moreover, in the data set on HepG2 cells [2], the “Main mechanism of cell death” value is “Apoptosis” and the “Concentration causing significant reduction in cell viability (annexin V staining)” value turned out to be 1000 µM. In the data set with HepG2 cells [3], the “Concentration at which significant depletion of ATP was observed” value worked out at 1000 µM. Moreover, on human DAT, the DAT/SERT ratio is recorded as 0.45 (0.25–0.83) and the concentration for half-maximal inhibition (IC50) was 5100 nM. In the data set with HepG2 cells [4], the “Concentration causing significant cell membrane integrity loss” value turned out to be 2000 µM. The “Concentration at which significant increase in mitochondrial superoxide was observed” value in the data set on HepG2 cells [5] is 1000 µM.
Turning to `CC(N)Cc1ccc(F)cc1` (centres unmarked) [4-Fluoroamphetamine, 4-fluoroamphetamine], the IC50 against human NET was found to be 150 nM. For the same compound, in the data set with HepG2 cells [1], the “Concentration decreasing maximal respiratory capacity” value was 1000 µM. The compound also showed an IC50 against human SERT of 14000 nM. In addition, in the data set with HepG2 cells [2], the “Main mechanism of cell death” value is “Apoptosis” and the “Concentration causing significant reduction in cell viability (annexin V staining)” value came to 1000 µM. In addition, the “Concentration at which significant depletion of ATP was observed” value in the data set with HepG2 cells [3] worked out at 500 µM. At human DAT, the DAT/SERT ratio is listed as 3.6 (1.9–6.5) and the IC50 was 3900 nM. For the same compound, the “Concentration causing significant cell membrane integrity loss” value in the data set on HepG2 cells [4] was 2000 µM. Moreover, in the data set with HepG2 cells [5], the “Concentration at which significant increase in mitochondrial superoxide was observed” value came out at 1000 µM.
For `CNC(C)C(=O)c1ccc(F)cc1` (centres unmarked) [4-Fluoromethcathinone, 4-fluoromethcathinone], inhibition at human NET was half-maximal at 350 nM (IC50). Moreover, in the data set with HepG2 cells [1], the “Concentration disrupting cellular respiration” value was greater than 2000 µM. For the same compound, the midpoint of inhibition on human SERT, the IC50, lay at 37000 nM. In the data set on HepG2 cells [2], the “Amount of necrotic and apoptotic cells versus control at 2 mM” value is given as “did not significantly differ from control incubations”; the “Concentration causing significant reduction in cell viability (annexin V staining)” value was greater than 2000 µM. For the same compound, the “Concentration at which significant depletion of ATP was observed” value with HepG2 cells [3] came out at 1000 µM. For the same compound, at human DAT, the DAT/SERT ratio is 5.6 (3.3–9.4) and the IC50 amounted to 6600 nM. Also, the “Concentration causing significant cell membrane integrity loss” value with HepG2 cells [4] is greater than 2000 µM. Also, the “Concentration at which significant increase in mitochondrial superoxide was observed” value in the data set with HepG2 cells [5] was determined as 2000 µM.
`CC(N)Cc1ccccc1` (centres unmarked) [Amphetamine]: in the data set with HepG2 cells [2], the “Amount of necrotic and apoptotic cells versus control at 2 mM” value is recorded as “did not significantly differ from control incubations”. Besides, the “Concentration at which significant depletion of ATP was observed” value in the data set on HepG2 cells [3] is 1000 µM. Moreover, the “Concentration causing significant cell membrane integrity loss” value in the data set with HepG2 cells [4] was 2000 µM. Further, the “Concentration at which significant increase in mitochondrial superoxide was observed” value with HepG2 cells [5] was 2000 µM.
Turning to `CNC(C)C(=O)c1ccccc1` (centres unmarked) [Methcathinone, methcathinone], half-maximal inhibition against human NET (IC50) required 120 nM. Besides, in the data set with HepG2 cells [1], the “Concentration disrupting cellular respiration” value is greater than 2000 µM. The compound further came in with an IC50 at human SERT of 54000 nM. Besides, in the data set with HepG2 cells [2], the “Amount of necrotic and apoptotic cells versus control at 2 mM” value is recorded as “did not significantly differ from control incubations”; the “Concentration causing significant reduction in cell viability (annexin V staining)” value was greater than 2000 µM. The “Concentration at which significant depletion of ATP was observed” value with HepG2 cells [3] was 2000 µM. On human DAT, the DAT/SERT ratio is 34 (20–57) and the IC50 is 1600 nM. In addition, the “Concentration causing significant cell membrane integrity loss” value in the data set with HepG2 cells [4] was greater than 2000 µM. The “Concentration at which significant increase in mitochondrial superoxide was observed” value in the data set with HepG2 cells [5] worked out at 2000 µM.
